ChEMBL document CHEMBL1128307, “2-Aralkynyl and 2-heteroalkynyl derivatives of adenosine-5'-N-ethyluronamide as selective A2a adenosine receptor agonists” (J Med Chem, 1995)

How the values were obtained:
[1] = target: T1, Adenosine receptor A1 (Rattus norvegicus, UniProt P25099); assay: Functional activity against adenosine A1 receptor from rat atria.
T1 sequence (P25099 whole entry): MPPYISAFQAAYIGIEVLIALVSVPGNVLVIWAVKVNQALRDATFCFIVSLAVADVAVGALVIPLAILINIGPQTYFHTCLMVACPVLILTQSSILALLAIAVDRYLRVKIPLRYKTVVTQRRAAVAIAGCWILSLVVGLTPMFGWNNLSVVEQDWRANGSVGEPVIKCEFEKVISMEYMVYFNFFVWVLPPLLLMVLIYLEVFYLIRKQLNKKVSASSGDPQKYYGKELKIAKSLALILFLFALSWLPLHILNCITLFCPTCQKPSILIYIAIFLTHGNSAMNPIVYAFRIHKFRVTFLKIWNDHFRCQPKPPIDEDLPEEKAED

[2] = Hydrophobicity index (k'') (RP-HPLC pH 7.5); format: ADME
[3] = target: T1, Adenosine receptor A1
Description: Binding affinity against adenosine A1 receptor from rat brain using [3H]CHA as a radioligand.

[4] = target: T2, Adenosine receptor A2a (Rattus norvegicus, UniProt P30543)
T2 sequence (P30543 whole entry): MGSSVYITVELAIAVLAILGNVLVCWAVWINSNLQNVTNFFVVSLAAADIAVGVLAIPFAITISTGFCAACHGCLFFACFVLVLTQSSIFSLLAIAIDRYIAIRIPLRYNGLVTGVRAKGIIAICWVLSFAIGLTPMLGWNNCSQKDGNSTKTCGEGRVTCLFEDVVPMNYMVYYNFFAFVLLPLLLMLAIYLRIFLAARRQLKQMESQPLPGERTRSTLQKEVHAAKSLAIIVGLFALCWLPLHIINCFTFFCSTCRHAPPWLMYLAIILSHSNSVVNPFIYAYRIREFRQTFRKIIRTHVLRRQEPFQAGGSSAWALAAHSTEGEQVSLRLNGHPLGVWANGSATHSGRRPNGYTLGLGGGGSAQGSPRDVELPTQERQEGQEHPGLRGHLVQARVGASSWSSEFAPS

[5] = target: T2, Adenosine receptor A2a; remark: listed apart in the source
Description: Functional activity against adenosine A2a receptor from rat aorta.

[6] = target: T2, Adenosine receptor A2a; assay: Functional activity against A2a adenosine receptor from rat aorta.

| SMILES | EC50 [1] [nM] | k' [2] | Ki [3] [nM] | Ki [4] [nM] | EC50 [5] [nM] | EC50 [6] [nM] |
| --- | --- | --- | --- | --- | --- | --- |
| CCNC(=O)[C@H]1OC(n2cnc3c(N)nc(C#Cc4ccc(CCC(=O)OC(C)(C)C)cc4)nc32)[C@H](O)[C@@H]1O (stereo not given in full) | > 10000 | 2.28 | > 10000 | 743 | 1350 | – |
| CCNC(=O)[C@H]1OC(n2cnc3c(N)nc(C#Cc4ccc(C=O)cc4)nc32)[C@H](O)[C@@H]1O (stereo not given in full) | > 10000 | 1.02 | 1000 | 6.3 | 110 | – |
| CCNC(=O)[C@H]1OC(n2cnc3c(N)nc(C#CCCc4ccccc4)nc32)[C@H](O)[C@@H]1O (stereo not given in full) | > 10000 | 3.16 | 448 | 7 | 210 | – |
| CCNC(=O)[C@H]1OC(n2cnc3c(N)nc(C#Cc4ccncc4)nc32)[C@H](O)[C@@H]1O (stereo not given in full) | > 10000 | 0.57 | 428 | 87 | > 10000 | – |
| CCNC(=O)[C@H]1OC(n2cnc3c(N)nc(C#CCN4CCCCC4)nc32)[C@H](O)[C@@H]1O (stereo not given in full) | 322 | 1.11 | 27.5 | 4.3 | 302 | – |
| CCNC(=O)[C@H]1O[C@@H](n2cnc3c(N)nc(NCCc4ccc(CCC(=O)O)cc4)nc32)[C@H](O)[C@@H]1O [CGS-21680] | – | 0.24 | – | – | – | – |
| CCNC(=O)[C@H]1O[C@@H](n2cnc3c(N)nc(C#CCCCc4ccccc4)nc32)[C@H](O)[C@@H]1O | 6480 | 5.82 | 209 | 1.2 | – | – |
| CCNC(=O)[C@H]1OC(n2cnc3c(N)nc(C#Cc4nccs4)nc32)[C@H](O)[C@@H]1O (stereo not given in full) | 7160 | 0.55 | 85.4 | 41.3 | 28.7 | – |
| CCNC(=O)[C@H]1OC(n2cnc3c(N)nc(C#CCN4CCSCC4)nc32)[C@H](O)[C@@H]1O (stereo not given in full) | 306 | 0.66 | 52.8 | 5.9 | 223 | – |
| CCNC(=O)[C@H]1OC(n2cnc3c(N)nc(C#Cc4ccccn4)nc32)[C@H](O)[C@@H]1O (stereo not given in full) | 840 | 0.49 | 114 | 89.8 | 243 | – |
| CCNC(=O)[C@H]1OC(n2cnc3c(N)nc(C#Cc4ccc(CCC(=O)O)cc4)nc32)[C@H](O)[C@@H]1O (stereo not given in full) | > 10000 | – | > 1000 | > 1000 | 0.008 | – |
| CCNC(=O)[C@H]1OC(n2cnc3c(N)nc(C#Cc4ccc(C)cc4)nc32)[C@H](O)[C@@H]1O (stereo not given in full) | 8530 | 3.59 | 500 | 36.3 | 3290 | – |
| OC[C@H]1O[C@@H](n2cnc3c(NC4CCCC4)nc(Cl)nc32)[C@H](O)[C@@H]1O | – | 2.76 | – | – | – | – |
| CCNC(=O)[C@H]1OC(n2cnc3c(N)nc(C#CCN4CCN(C)CC4)nc32)[C@H](O)[C@@H]1O (stereo not given in full) | 877 | 0.42 | 35.9 | 19.1 | 408 | – |
| CCNC(=O)[C@H]1OC(n2cnc3c(N)nc(C#Cc4ccco4)nc32)[C@H](O)[C@@H]1O (stereo not given in full) | > 10000 | 1.06 | 310 | 130 | > 10000 | – |
| CCNC(=O)[C@H]1OC(n2cnc3c(N)nc(C#Cc4cccnc4)nc32)[C@H](O)[C@@H]1O (stereo not given in full) | 415 | 0.51 | 139 | 234 | 491 | – |
| CCNC(=O)[C@H]1OC(n2cnc3c(N)nc(C#Cc4ccc(C(F)(F)F)cc4)nc32)[C@H](O)[C@@H]1O (stereo not given in full) | – | 5.79 | 2430 | 315 | 2990 | – |
| CCNC(=O)[C@H]1OC(n2cnc3c(N)nc(C#Cc4ccc(CC#N)cc4)nc32)[C@H](O)[C@@H]1O (stereo not given in full) | > 10000 | 0.76 | 1600 | 54.8 | 6520 | – |

| SMILES | EC50 [1] [nM] | k' [2] | Ki [3] [nM] | Ki [4] [nM] | EC50 [5] [nM] | EC50 [6] [nM] |
| --- | --- | --- | --- | --- | --- | --- |
| CCNC(=O)[C@H]1OC(n2cnc3c(N)nc(C#Cc4ccccc4C=O)nc32)[C@H](O)[C@@H]1O (stereo not given in full) | > 10000 | 1.14 | 6860 | 1160 | 1300 | – |
| CCNC(=O)[C@H]1OC(n2cnc3c(N)nc(C#CCN4CCOCC4)nc32)[C@H](O)[C@@H]1O (stereo not given in full) | 358 | 0.28 | 90.5 | 27.4 | 531 | – |
| CCCCC#Cc1nc(N)c2ncn([C@@H]3O[C@H](C(=O)NCC)[C@@H](O)[C@H]3O)c2n1 | – | 2.57 | – | – | 596 | – |
| C#Cc1nc(N)c2ncn([C@@H]3O[C@H](C(=O)NCC)[C@@H](O)[C@H]3O)c2n1 | – | 0.25 | – | 57.8 | 440 | – |
| CCNC(=O)[C@H]1OC(n2cnc3c(N)nc(C#Cc4ccc(C(N)=O)cc4)nc32)[C@H](O)[C@@H]1O (stereo not given in full) | > 10000 | 0.32 | 7500 | 1500 | 6420 | – |
| CCNC(=O)[C@H]1OC(n2cnc3c(N)nc(C#Cc4ccc(F)cc4)nc32)[C@H](O)[C@@H]1O (stereo not given in full) | > 10000 | 2.33 | 3310 | 81.4 | > 10000 | – |
| CCNC(=O)[C@H]1OC(n2cnc3c(N)nc(C#Cc4cccc(C=O)c4)nc32)[C@H](O)[C@@H]1O (stereo not given in full) | > 10000 | 1.06 | 1440 | 176 | 3570 | – |
| CCNC(=O)[C@H]1OC(n2cnc3c(N)nc(C#CCc4ccccc4)nc32)[C@H](O)[C@@H]1O (stereo not given in full) | 164 | 2.4 | 27.4 | 1.6 | 406 | – |
| CCNC(=O)[C@H]1O[C@@H](n2cnc3c(N)ncnc32)[C@H](O)[C@@H]1O [NECA] | – | 0.19 | – | – | – | – |
| CCNC(=O)[C@H]1OC(n2cnc3c(N)nc(C#Cc4ccc(N)cc4)nc32)[C@H](O)[C@@H]1O (stereo not given in full) | > 10000 | 0.46 | 599 | 113 | 4070 | – |
| CCNC(=O)[C@H]1OC(n2cnc3c(N)nc(C#Cc4cccs4)nc32)[C@H](O)[C@@H]1O (stereo not given in full) | > 10000 | 1.63 | 597 | 19.5 | – | 227 |
| CCNC(=O)[C@H]1OC(n2cnc3c(N)nc(C#Cc4ccc([N+](=O)[O-])cc4)nc32)[C@H](O)[C@@H]1O (stereo not given in full) | > 10000 | 1.82 | 900 | 21.5 | 1210 | – |
| CCNC(=O)[C@H]1O[C@@H](n2cnc3c(N)nc(C#Cc4ccccc4)nc32)[C@H](O)[C@@H]1O | > 10000 | 2.04 | 698 | 120 | 1500 | – |
| CCNC(=O)[C@H]1OC(n2cnc3c(N)nc(C#Cc4cccc5ccccc45)nc32)[C@H](O)[C@@H]1O (stereo not given in full) | > 10000 | 5.49 | 4460 | 488 | 468 | – |
| CCNC(=O)[C@H]1OC(n2cnc3c(N)nc(C#Cc4ccc(O)cc4)nc32)[C@H](O)[C@@H]1O (stereo not given in full) | > 10000 | 0.66 | 497 | 20.6 | 660 | – |
| CCNC(=O)[C@H]1OC(n2cnc3c(N)nc(C#Cc4ccc(C(C)=O)cc4)nc32)[C@H](O)[C@@H]1O (stereo not given in full) | > 10000 | 1.18 | > 10000 | 187 | 1670 | – |
| CCNC(=O)[C@H]1OC(n2cnc3c(N)nc(C#Cc4ccc(OC)cc4)nc32)[C@H](O)[C@@H]1O (stereo not given in full) | > 10000 | 2.15 | 414 | 52.4 | 3480 | – |
| CCNC(=O)[C@H]1OC(n2cnc3c(N)nc(C#CCn4ccnc4)nc32)[C@H](O)[C@@H]1O (stereo not given in full) | 3140 | 0.22 | 178 | 16.5 | 753 | – |
